Publication PMC8322070, “A novel orally active HDAC6 inhibitor T-518 shows a therapeutic potential for Alzheimer’s disease and tauopathy in mice” (Scientific Reports, 2021)

Columns and labels:
HDAC1‒5, 7‒9, and 11 = assay: HDAC selectivity panel (Reaction Biology Corporation); format: biochemical; conditions: up to 10 μM; heat map Fig. 2A
[1] = tested on: Histone H3 acetylation in mouse primary neural cultures; assay: Histone H3 acetylation in mouse primary neural culture (Western blotting); format: cell-based; conditions: DIV6 mouse primary neural culture, 3 and 30 μM, 24 h
Experimental: (§1) T-518, ACY-738, Ricolinostat, and Tubastatin A were synthesized in Takeda. For in vitro cellular experiments, the compounds were solubilized with DMSO and diluted in the culture medium at the indicated concentrations. For in vivo experiments, the compound was reconstituted in 0.5% methylcellulose and administered orally at the indicated doses. After administration, mouse hippocampus was isolated and homogenized in RIPA extraction buffer (50 mM Tris–HCl, 150 mM NaCl, 1% NP-40, 0.5% sodium deoxycholate, and 0.1% SDS, pH 8.0) supplemented with protease and phosphatase inhibitor cocktail (Thermo Fischer, Waltham, MA, USA). The homogenate was centrifuged at 10,000g for 15 min and the supernatant was taken as the RIPA-soluble fraction.
Primary cortical neurons were prepared from E14 C57BL/6J mouse embryos (CLIEA Japan, Inc., Tokyo, Japan) using papain-containing Neuron Dissociation Solutions (Fujifilm Wako, Tokyo, Japan). Isolated cells were suspended in Neurobasal Medium containing B-27 (Thermo Fisher) and seeded on poly-D-lysine-coated plates (Corning, NY, USA) under 5% CO2 at 37 °C for 6 days in vitro (DIV) prior to evaluation of HDAC6 inhibitors. Cells were treated with HDAC6 inhibitors at the indicated concentrations for 24 h and lysed in RIPA extraction buffer (50 mM Tris–HCl, 150 mM NaCl, 1% NP-40, 0.5% sodium deoxycholate, and 0.1% SDS, pH 8.0) supplemented with protease and phosphatase inhibitor cocktail (Thermo Fisher).
Cell lysate or in vivo protein samples were separated by 10% SDS-PAGE, then electrophoretically transferred to 0.45 μm poly-vinylidene difluoride membranes (Millipore). Membranes were blocked for 1 h in Blocking Reagent (TOYOBO, Osaka, Japan), probed with primary antibodies followed by labeling with HRP-coupled secondary antibodies (Amersham, Piscataway, NJ), and then visualized using chemiluminescence reagent (ECL; Amersham). Images were captured using ImageQuant LAS 4000 (GE healthcare Bio-Sciences, Marlborough, MA, USA). Quantitative densitometric analyses were conducted using ImageQuant TL (GE healthcare Bio-Sciences). The protocol was slightly modified for detection of HDAC6 in cortex. Briefly, cerebral cortex was homogenized in RIPA buffer supplemented with 1 μM microstatin, 1 μM MG115, 40 μM Leupeptin, 100 μM ABSF, and 2 mM sodium orthovanadate, separated by 7.5–15% gradient SDS-PAGE and electrophoretically transferred to 0.45 μm poly-vinylidene difluoride membranes (Millipore). Membranes were blocked for 1 h with ECL Prime Blocking Reagent (Amersham, Piscataway, NJ) prior to immunoblotting, visualization, and densitometry as described above.

[2] = tested on: tubulin acetylation in WT mice or HDAC6 KO mice; assay: HDAC6 dependency of in vivo tubulin acetylation, WT and HDAC6 KO mice; design: species or system mouse; conditions: 300 mg/kg
Text: HDAC6 knockout (KO) mice were generated by deletion of a ~ 1.7-kbp region including exon15–20 of the Hdac6 gene using fertilized C57BL/6J eggs and the CRISPR-Cas9 system. […] Male hemizygous KO mice were selected by qPCR detection of the Hdac6 intron16 sequence (Figure S2A). The qPCR primers and probe sequences were as follows: FW primer; 5′-[…]-3′, RV primer; 5′-[…]-3′ and MGB probe; 5′-CCAGGCCATGTTTT-3′.
as §1
Acetylated α-tubulin and total tubulin levels were measured by sandwich ELISA. […]

[3] = Free fraction in a brain (Fu,b); format: in vitro ADME; conditions: data not shown
P301S tau Tg mice [4] = assay: Septohippocampal retrograde axonal transport of Fluoro-Gold in tauopathy model; format: in vivo, mouse; conditions: 3 mg/kg daily for 2 weeks, 5-month-old P301S tau Tg mice
Experimental: as §1
The integrity of retrograde axonal transport was evaluated by detecting the accumulation of Fluoro-Gold (Fluorochrome, Denver, CO) in the medial septal nucleus after injection into hippocampus (0.5 μL of 5% at AP − 2.3 mm, ML − 2.0 mm, and DV − 2.0 mm relative to bregma). Three days after injection, mice were anesthetized and transcardially perfused with PBS (pH 7.4) followed by 4% paraformaldehyde. […] Fluorescent cells in the medial septum region were counted with Image-Pro Plus software (version 4.5.0.24) (Media Cybernetics, Rockville, MD; https://www.mediacy.com/imageproplus).

P301S tau Tg mice [5] = assay: Tau accumulation in hippocampus by RAB-RIPA-FA extraction and Western blotting; format: in vivo, mouse; conditions: 3 mg/kg daily, from 6 to 9 months of age
Experimental: as §1
Cell lysate or in vivo protein samples were separated by 10% SDS-PAGE, then electrophoretically transferred to 0.45 μm poly-vinylidene difluoride membranes (Millipore). Membranes were blocked for 1 h in Blocking Reagent (TOYOBO, Osaka, Japan), probed with primary antibodies followed by labeling with HRP-coupled secondary antibodies (Amersham, Piscataway, NJ), and then visualized using chemiluminescence reagent (ECL; Amersham). Images were captured using ImageQuant LAS 4000 (GE healthcare Bio-Sciences, Marlborough, MA, USA). Quantitative densitometric analyses were conducted using ImageQuant TL (GE healthcare Bio-Sciences). […]

experimental mice = assay: Tolerability of chronic dosing; format: in vivo

## O=C1c2cc(-c3nnc(C(F)F)o3)cnc2CN1[C@@H]1CCCC[C@H]1NC(=O)C(F)(F)C(F)(F)F [T-518, N-[(1R,2R)-2-{3-[5-(difluoromethyl)-1,3,4-oxadiazol-2-yl]-5-oxo-5H,6H,7H-pyrrolo[3,4-b]pyridin-6-yl}cyclohexyl]-2,2,3,3,3-pentafluoropropanamide]
HDAC1‒5, 7‒9, and 11
  inhibition of HDAC1‒5, 7‒9, and 11 in HDAC panel: does not inhibit
[1]
  effect on Histone H3 acetylation: neither T-518 nor Tubastatin A at 3 and 30 μM demonstrates this activity
[2]; 27-week-old male HDAC6 KO mice
  tubulin acetylation in HDAC6 KO mice: had no effect
[2]; 27-week-old male WT mice
  tubulin acetylation in WT mice: significantly elevated tubulin acetylation
[3]
  fraction unbound: 0.4
P301S tau Tg mice [4]
  retrograde axonal transport of Fluoro-Gold from hippocampus to medial septal nucleus: significantly improved axonal transport
P301S tau Tg mice [5]
  RAB-soluble and RIPA-soluble tau fractions in hippocampus: without affecting
  accumulation of tau in the FA fraction (RIPA-insoluble tau) in hippocampus: significantly decreased
Experimental mice
  tolerability of chronic dosing: well tolerated
